The values that follow come from publication PMC12491383, “Organ and tumour dosimetry of ^177Lu-rhPSMA-10.1, a novel PSMA-targeted therapy: results from a Phase I trial” (European Journal of Nuclear Medicine and Molecular Imaging, 2025).

Series [1] is described as follows: Tumour dosimetry by SPECT/CT, activity-based and anatomy-based tumour selection and delineation. The series is classed as in vivo, human. The settings on record: for Tumour absorbed dose lower than Cycle 1 value, on average: anatomy-based. How it is done:
Multi-bed single-photon emission computed tomography (SPECT)/CT was conducted at 3-, 24-, 48- and 168-hours post-^177Lu-rhPSMA-10.1 administration in each treatment cycle for the estimation of organ and tumour absorbed doses in each patient. Prior to commencement of the study, each investigating site was required to complete a calibration of their dose calibrator and SPECT/CT system to ensure harmonised quantification of the imaging data. Quantitative reconstructions and all dosimetry analyses were carried out centrally by an independent dosimetry vendor (Radiopharmaceutical Imaging and Dosimetry LLC, Baltimore, MD).
The specific absorbed doses (Gy/GBq) in normal organs and tumours were determined using the Medical Internal Radiation Dose (MIRD) Committee S-value methodology. Individual patient organ masses, determined via CT delineation, were scaled to reflect deviations from reference phantom geometry. Cumulative organ absorbed doses (Gy) were calculated across all treatment cycles. Further details on dosimetry methodology are provided in the supplemental materials and have been reported in accordance with EANM guidance.
Approach one was an activity-based method equivalent to that used in most studies that have evaluated tumour dosimetry with ^177Lu-labelled PSMA RLT [28]. For this method, up to three tumours were selected according to their relative visual uptake on the 168-hour SPECT/CT. Lesion contouring for volume/mass was performed based on a 41% SUVmax threshold on the corresponding PSMA PET/CT. These contours were manually transferred onto the SPECT images, making minor adjustments where necessary to the contour margins accounting for any activity spill out on the SPECT. This is illustrated in Supplemental Figure S1. The second method was anatomy-based, with up to five tumours selected in a blinded fashion on CT according to RECIST v1.1 criteria. Lesion volume and mass were determined via manual contouring on the CT and then directly transferred to the SPECT images. Where a common lesion was selected across both methods, the difference in tumour volume resulting from the two contouring methods was calculated.
For the Cycle 1 tumour dosimetry, 36 lesions (27 bone and 9 lymph nodes) were analysed using the activity-based method, while 51 lesions (39 bone and 12 lymph nodes) were evaluated using the anatomy-based method. […] For each method, the mean tumour dose was determined by averaging the maximum tumour dose across all patients.

Series [2] is described as follows: Venous whole-blood radioactivity measurement (gamma counter): blood clearance and red marrow absorbed dose. The format is in vivo, human. How it is done:
To assess the biodistribution and kinetics of radioactivity in individual tissues, whole blood and imaging-based radiation dosimetry were performed. Venous blood samples for radioactivity measurement were collected within the 30 min prior to ^177Lu-rhPSMA-10.1 administration, and at approximately 30 min, 1.5-, 4-, 24- and 48-hours post-administration in all treatment cycles. Samples were collected from the contralateral arm to that of the ^177Lu-rhPSMA-10.1 injection. Whole-blood concentrations were measured using a calibrated gamma counter to estimate both red marrow absorbed doses and blood clearance over time. All measurements were decay-corrected to the time of sample collection.
All continuous data are expressed as the mean (standard deviation [SD]) unless otherwise stated. All blood- and image-based pharmacokinetic analyses were conducted in Python and Excel. Effective half-lives for organs and tumours were calculated using a mono-exponential fit to the washout phase of the time–activity data.

Details of series [3]: method as in PMID 37770108. The settings on record: within the same patient; compassionate use program in Germany; cited from earlier work.

Values joined by “and” are separate entries in the source; they are usually repeats but may differ in a detail not shown here. Equal entries are not always repeated.

For `CC(C)(C)[Si](F)(c1ccc(C(=O)NC[C@@H](NC(=O)CN2CCN(CC(=O)[O-])CCN(CC(=O)[O-])CCN(CC(=O)[O-])CC2)C(=O)N[C@H](CCCCNC(=O)CCC(=O)NCCC[C@@H](NC(=O)CC[C@H](NC(=O)N[C@@H](CCC(=O)O)C(=O)O)C(=O)O)C(=O)O)C(=O)O)cc1)C(C)(C)C.[177Lu+3]` [^177Lu-rhPSMA-10.1], in series [1] (Cycle 2, 11 patients with multiple cycles), the “Tumour absorbed dose lower than Cycle 1 value, on average” value is ~ 37% and 37%. The “Tumour absorbed dose lower than Cycle 1 value, on average” value in series [1] (Cycle 3) was ~ 56% and 56%. In addition, in series [1] (activity method, Cycle 1), the “Maximum tumour absorbed dose, range across patients” value is 2.00–25.7 Gy/GBq; the “Mean (SD) maximum tumour absorbed dose” value is 8.87 Gy/GBq and 8.87 (6.71) Gy/GBq; the “Mean therapeutic index, ratio of tumour-to-kidney absorbed doses” value was 32.1; the “Mean tumour-to-salivary gland absorbed dose ratio” value is on record as 73.2. For the same compound, in series [1] (anatomy method, Cycle 1), the “Maximum tumour absorbed dose, range across patients” value is 0.37–6.67 Gy/GBq; the “Mean (SD) maximum tumour absorbed dose” value is 2.38 (1.78) Gy/GBq and 2.38 Gy/GBq. The “Mean (SD) Absorbed Dose, bone marrow (blood-based)” value in series [2] (All Cycles) is 0.032 Gy/GBq and 0.032 (0.010) Gy/GBq. Moreover, in series [2] (Cycle 1, 13 patients), the “Mean (SD) Absorbed Dose, bone marrow (blood-based)” value is listed as 0.031 (0.010) Gy/GBq. In series [2] (venous whole blood, based on mean patient levels, mean (SD)), the “Effective half-life in blood” value was determined as 2.2 h. In series [3], the “Radiation dose to the tumour relative to ^177Lu-PSMA-I&T, fold greater” value is “up to 8 fold”.
